Patent US9809626B2, “Antibacterial agents: salinamide derivatives” (priority 2012, dated 2017)
In brackets after ≈: the same amount, converted by molar mass. Numbered stars: 1 amine (or outer) side, 2 acyl side, 3 side chain; on linkers, the order of the positions; unused ones are H or OH. Bridge positions count the residues as written; N and C are the ends. Square brackets hold non-standard residues; d marks the D form. Peptide text beside a SMILES is read from it. * marks the point of attachment. X7 = C[C@@H](Oc1ccc([C@H](N[*:1])C(=O)[*:2])cc1)[C@](O)(/C=C/C(=O)[*:3])CNCCCCCCNC(=O)OC(C)(C)C; X6 = C[C@@H](Oc1ccc([C@H](N[*:1])C(=O)[*:2])cc1)[C@](O)(/C=C/C(=O)[*:3])CNCCCNC(=O)OC(C)(C)C; X4 = CCCCOC[C@@](O)(/C=C/C(=O)[*:3])[C@@H](C)Oc1ccc([C@H](N[*:1])C(=O)[*:2])cc1; X5 = C[C@@H](Oc1ccc([C@H](N[*:1])C(=O)[*:2])cc1)[C@](O)(/C=C/C(=O)[*:3])CO; Pentanoyl(2R-Me,3R-OH,4-Me) = CC(C)[C@@H](O)[C@@H](C)C(=O)*; d(aIle) = CC[C@H](C)[C@@H](N)C(=O)O; d(aThr) = C[C@@H](O)[C@@H](N)C(=O)O; NMeF = CN[C@@H](Cc1ccccc1)C(=O)O

Legend:
Sal-resistant mutants [1] = test: Cross-resistance of Sal-resistant mutants to other RNAP inhibitors; assay type: cell-based; conditions: disclosed herein
[2] = test system: Enterobacter cloacae ATCC13047; test: Antibacterial activity, broth microdilution; assay type: cell-based; conditions: Enterobacter cloacae, ATCC13047; minimal concentration resulting in ≧50% inhibition of bacterial growth; read-out: MIC50 Enterobacter cloacae ATCC 13047
Description: (§1) Antibacterial activity was quantified using broth microdilution [Clinical and Laboratory Standards Institute (CLSI/NCCLS), Methods for Dilution Antimicrobial Susceptibility Tests for Bacteria That Grow Aerobically; Approved Standard, Eighth Edition. CLIS Document M07-A8 (CLIS, Wayne Pa.), 2009]. Assays with Enterobacter cloacae ATCC13047, Pseudomonas aeruginosa ATCC10145, and Escherichia coli D21f2to1C, employed a starting cell density of 2-5×10^5 cfu/ml, Mueller Hinton II cation adjusted broth (BD Biosciences, Inc.), and an air atmosphere. Assays with Haemophilus influenzae ATCC49247 and Neisseria gonorrhoeae ATCC19424 employed a starting cell density of 2-5×10^5 cfu/ml, Haemophilus Test Medium broth (Barry et al., 1993) and a 5% CO2/95% air atmosphere. MIC50 was defined as the minimal concentration resulting in ≧50% inhibition of bacterial growth.

[3] = test system: Escherichia coli D21f2tolC; test: Antibacterial activity, broth microdilution; assay type: cell-based; conditions: Escherichia coli, D21F2TOLC, read-out: MIC50 Escherichia coli D21f2tolC
Description: as §1

Sal-resistant mutants [4] = conditions: Ebright et al., WO/2012/129173; cited from earlier work

Row | Compound | cross-resistance of Sal-resistant mutants with the compound (Sal-resistant mutants [1]) | MIC50 [2] | MIC50 [3] | cross-resistance of Sal-resistant mutants to the compound (Sal-resistant mutants [4])
1 | lipiarmycin | do not exhibit cross-resistance |  |  | 
2 | CC[C@H](C)[C@H]1NC(=O)[C@@H](NC(=O)[C@H](C)[C@H](O)C(C)C)[C@@H](C)OC(=O)[C@@H]2COC(=O)CNC(=O)/C=C/[C@](O)(CO)[C@@H](C)Oc3ccc(cc3)[C@H](NC1=O)C(=O)N(C)[C@@H](Cc1ccccc1)C(=O)N[C@H]([C@@H](C)O)C(=O)N2 [Sal-OH (4), Sal-OH] ({Pentanoyl(2R-Me,3R-OH,4-Me)}-T[d(aIle)][X5][NMeF][d(aThr)]S; ester 1-C; linker 3-6 via G) |  | 25 µg/mL (≈ 24.1 µM) | 0.78 µg/mL (≈ 0.751 µM) | 
3 | CC[C@H](C)[C@H]1NC(=O)[C@@H](NC(=O)[C@H](C)[C@H](O)C(C)C)[C@@H](C)OC(=O)[C@@H]2COC(=O)CNC(=O)/C=C/[C@](O)(CNCCCNC(=O)OC(C)(C)C)[C@@H](C)Oc3ccc(cc3)[C@H](NC1=O)C(=O)N(C)[C@@H](Cc1ccccc1)C(=O)N[C@H]([C@@H](C)O)C(=O)N2 [Sal-NH(CH2)3NHBoc (7), Sal-NH(CH2)3NHBoc] ({Pentanoyl(2R-Me,3R-OH,4-Me)}-T[d(aIle)][X6][NMeF][d(aThr)]S; ester 1-C; linker 3-6 via G) |  | 100 µg/mL (≈ 83.7 µM) | 1.56 µg/mL (≈ 1.31 µM) | 
4 | CC[C@H](C)[C@H]1NC(=O)[C@@H](NC(=O)[C@H](C)[C@H](O)C(C)C)[C@@H](C)OC(=O)[C@@H]2COC(=O)CNC(=O)/C=C/[C@](O)(CNCCCCCCNC(=O)OC(C)(C)C)[C@@H](C)Oc3ccc(cc3)[C@H](NC1=O)C(=O)N(C)[C@@H](Cc1ccccc1)C(=O)N[C@H]([C@@H](C)O)C(=O)N2 [Sal-NH(CH2)6NHBoc (9), Sal-NH(CH2)6NHBoc] ({Pentanoyl(2R-Me,3R-OH,4-Me)}-T[d(aIle)][X7][NMeF][d(aThr)]S; ester 1-C; linker 3-6 via G) |  | 25 µg/mL (≈ 20.2 µM) | 0.78 µg/mL (≈ 0.631 µM) | 
5 | myxopyronin | do not exhibit cross-resistance |  |  | 
6 | CCCCOC[C@@]1(O)/C=C/C(=O)NCC(=O)OC[C@@H]2NC(=O)[C@@H]([C@@H](C)O)NC(=O)[C@H](Cc3ccccc3)N(C)C(=O)[C@@H](NC(=O)[C@@H]([C@@H](C)CC)NC(=O)[C@@H](NC(=O)[C@H](C)[C@H](O)C(C)C)[C@@H](C)OC2=O)c2ccc(cc2)O[C@@H]1C [Sal-OBu A (5A), Sal-OBu A] ({Pentanoyl(2R-Me,3R-OH,4-Me)}-T[d(aIle)][X4][NMeF][d(aThr)]S; ester 1-C; linker 3-6 via G) |  | 12.5 µg/mL (≈ 11.4 µM) | 1.56 µg/mL (≈ 1.43 µM) | 
7 | ONC(=Nc1ccccc1)c1cccc(C(F)(F)F)c1 [CBR703] |  |  |  | not cross-resistant
8 | CNC(=O)[C@@H](C)[C@H]1C(=O)/C(=C(O)/C=C/C(C)=C/[C@@H](C)[C@H]2O[C@@]3(C)O[C@H](C=C[C@@]34CO4)[C@@H]2C)C(=O)N1[C@@H]1CC[C@H](O)[C@H](C)O1 [streptolydigin] | do not exhibit cross-resistance |  |  | 
